On the set-up of data set [1]: method as in PMID 37880389. As to conditions: including increases in patient troponin I levels; cited from earlier work.
On the set-up of data set [2]: method as in PMID 30254093. As to conditions: species not given; cited from earlier work.
A further data set relates to NCI-H929 cell line. Nature of the data set: cells. As to conditions: Homo sapiens. Here is the method: (§1) NCI-H1048 were cultured in custom medium prepared by PanBioTech containing DMEM/F12 + 5% fetal calf serum, 0.005 mg/mL insulin, 0.01 mg/mL transferrin, 30 nM sodium selenite, 10 nM hydrocortisone, 10 nM β-estradiol and […] 2 mM L-glutamine.
(§2) Suspension cells were plated immediately before compound addition. Adherent cell lines were incubated overnight at 37 °C in a tissue culture incubator prior to compound addition. Compounds were added in triplicates using an HP D300e Digital Dispenser (Hewlett-Packard) or manually at the concentrations indicated and total volumes were normalized using dimethyl sulfoxide (DMSO) backfill, with final DMSO concentration of 0.5%. Control wells were treated with DMSO only.

The subject of a further data set is K562 cell line. Nature of the data set: cells. As to conditions: Homo sapiens, K562, read-out: K562 GI50. Here is the method:
as §1, §2

Another data set addresses Mcl-1 (Homo sapiens, UniProt Q07820). The class given is binding. As to conditions: read-out: TR-FRET Ki. The text has this:
Mixtures containing vehicle without compound served as a negative control, while mixtures containing no protein served as a positive control.
(In TR-FRET formats the signal depends on donor and acceptor labels being close together.)

The next data set in a line: Dog IV PK. Particulars: dosed at 0.25 mg/kg.
Setting [3] is: NCI-H929, read-out: NCI-H929 GI50.

Read-outs that look alike come from different tables or passages of the source. Marks after values point to notes of the source that are not given here. A value given as a limit tells only on which side of the number the result lay.

Chain of Mcl-1 (Q07820 whole entry): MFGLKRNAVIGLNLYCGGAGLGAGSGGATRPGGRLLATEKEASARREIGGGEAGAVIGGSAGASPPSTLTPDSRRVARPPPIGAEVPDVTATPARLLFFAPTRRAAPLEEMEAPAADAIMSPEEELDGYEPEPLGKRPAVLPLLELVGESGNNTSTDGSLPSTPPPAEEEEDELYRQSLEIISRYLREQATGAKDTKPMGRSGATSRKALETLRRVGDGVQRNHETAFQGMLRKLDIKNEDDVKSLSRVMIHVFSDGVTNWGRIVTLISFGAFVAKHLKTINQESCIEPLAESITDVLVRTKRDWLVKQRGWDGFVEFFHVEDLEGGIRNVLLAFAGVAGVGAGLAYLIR
Protocol for Dog IV PK: (§3) For PK analysis, mice and dogs were administered intravenously with compound formulated either in 10% ethanol and 10% Cremophor EL for mice or in 50% ethanol and 50% PEG500 for dogs. Plasma samples were obtained at predefined time points and compound concentrations in plasma were measured by quantitative HPLC-MS/MS using an internal standard. Calibration and quality control samples were prepared using blank plasma from untreated animals. Samples were precipitated with acetonitrile and injected into a HPLC system (Agilent 1200). […] The HPLC was interfaced by ESI operated in positive ionization mode to a triple quadrupole mass spectrometer (6500+ Triple Quad System, SCIEX) operated in multiple reaction monitoring mode. Chromatograms were analyzed with Analyst (SCIEX) and pharmacokinetic parameters were calculated by noncompartmental analysis using proprietary software.
Protocol for Mouse IV PK: as §3

`COc1ccccc1-c1nccc(COc2ccccc2C[C@@H](Oc2ncnc3sc(-c4ccc(F)cc4)c(-c4ccc(OCCN5CCN(C)CC5)c(Cl)c4C)c23)C(=O)O)n1` [Compound 1]: the “toxicity reported in the clinic” value in data set [1] is “dose limiting toxicities”.
Regarding `CO[C@H]1/C=C/C[C@H](C)[C@@H](C)S(=O)(=O)NC(=O)c2ccc3c(c2)N(C[C@@H]2CC[C@H]21)C[C@@]1(CCCc2cc(Cl)ccc21)CO3` [Compound 3], in data set [2], the T is given as 14 h; the Vss (usually a proportionality between amount in the body and measured concentration, not a real space) is reported as 0.6 L/kg.
With `CO[C@]1(CN2CCN3CCCC[C@@H]3C2)/C=C/C[C@H](C)[C@@H](C)S(=O)(=O)NC(=O)c2ccc3c(c2)N(C[C@@H]2CC[C@H]21)C[C@@]1(CCCc2cc(Cl)ccc21)CO3` [Compound 4], the “toxicity reported in the clinic” value in data set [1] is “dose limiting toxicities”.
`Cc1c(Cl)c2c(Cl)c(C)c1-c1c(-c3ccc(F)cc3)sc3ncnc(c13)O[C@@H](C(=O)O)Cc1cc(ccc1OCc1ccnc(-c3ccc(OC[C@H]4COCCO4)cc3)n1)OC[C@@H](CN1CCN(C)CC1)O2` [Compound 5]: in data set [1], the “toxicity reported in the clinic” value is “dose limiting toxicities”.
For `Cc1cc(N2C[C@@H](C)n3c(c(CCCOc4cc(C)c(Cl)c(C)c4)c4ccc(Cl)c(-c5c(C)nn(C)c5C)c43)C2=O)c2c(c1)cc(C(=O)O)n2C` [Compound 11, (R)-7-(7-Chloro-10-(3-(4-chloro-3,5-dimethylphenoxy)propyl)-4-methyl-1-oxo-6-(1,3,5-trimethyl-1H-pyrazol-4-yl)-3,4-dihydropyrazino[1,2-a]indol-2(1H)-yl)-1,5-dimethyl-1H-indole-2-carboxylic Acid], the figures for the GI50 in the data set on NCI-H929 cell line (setting [3]) and with K562 cell line were 140 ± 110 nM and greater than 12500 nM, respectively. Besides, at Mcl-1, the Ki (usually the dissociation constant of the complex between target and ligand, obtained from inhibition or displacement) turned out to be 0.205 ± 0.018 nM.
On to `COc1cc(N2C[C@@H](C)n3c(c(CCCOc4cc(C)c(Cl)c(C)c4)c4ccc(Cl)c(-c5c(C)nn(C)c5C)c43)C2=O)c2c(c1)cc(C(=O)O)n2C` [Compound 12, (R)-7-(7-Chloro-10-(3-(4-chloro-3,5-dimethylphenoxy)propyl)-4-methyl-1-oxo-6-(1,3,5-trimethyl-1H-pyrazol-4-yl)-3,4-dihydropyrazino[1,2-a]indol-2(1H)-yl)-5-methoxy-1-methyl-1H-indole-2-carboxylic Acid], for which the GI50 – broadly, the concentration at which growth is held to half of that of the control – in the data set with NCI-H929 cell line (setting [3]) is 211 ± 22 nM; in the data set on K562 cell line it was greater than 12500 nM. Moreover, the Ki on Mcl-1 is 0.185 ± 0.027 nM.
Regarding `COc1ccc(N2C[C@@H](C)n3c(c(CCCOc4cc(C)c(Cl)c(C)c4)c4ccc(Cl)c(-c5c(C)nn(C)c5C)c43)C2=O)c2c1cc(C(=O)O)n2C` [Compound 13, (R)-7-(7-Chloro-10-(3-(4-chloro-3,5-dimethylphenoxy)propyl)-4-methyl-1-oxo-6-(1,3,5-trimethyl-1H-pyrazol-4-yl)-3,4-dihydropyrazino[1,2-a]indol-2(1H)-yl)-4-methoxy-1-methyl-1H-indole-2-carboxylic Acid], the GI50 in the data set with NCI-H929 cell line (setting [3]) was 110 ± 38 nM; in the data set on K562 cell line, greater than 7100 nM. Also, the Ki on Mcl-1 turned out to be 0.091 ± 0.003 nM.
Regarding `COCc1cc(N2C[C@@H](C)n3c(c(CCCOc4cc(C)c(Cl)c(C)c4)c4ccc(Cl)c(-c5c(C)nn(C)c5C)c43)C2=O)c2c(c1)cc(C(=O)O)n2C` [Compound 14, (R)-7-(7-Chloro-10-(3-(4-chloro-3,5-dimethylphenoxy)propyl)-4-methyl-1-oxo-6-(1,3,5-trimethyl-1H-pyrazol-4-yl)-3,4-dihydropyrazino[1,2-a]indol-2(1H)-yl)-5-(methoxymethyl)-1-methyl-1H-indole-2-carboxylic Acid], the GI50 in the data set with NCI-H929 cell line (NCI-H929, read-out: H929 GI50) was 112 nM; in the data set with NCI-H929 cell line (setting [3]) it was 122 ± 16 nM; in the data set with K562 cell line, greater than 12500 nM. The Ki on Mcl-1 came out at 0.2 ± 0.065 nM.
Turning to `COCCOc1cc(N2C[C@@H](C)n3c(c(CCCOc4cc(C)c(Cl)c(C)c4)c4ccc(Cl)c(-c5c(C)nc(C)nc5C)c43)C2=O)c2c(cc(C(=O)O)n2C)c1OC` [Compound 25, (R)-7-(7-Chloro-10-(3-(4-chloro-3,5-dimethylphenoxy)propyl)-4-methyl-1-oxo-6-(2,4,6-trimethylpyrimidin-5-yl)-3,4-dihydropyrazino[1,2-a]indol-2(1H)-yl)-4-methoxy-5-(2-methoxyethoxy)-1-methyl-1H-indole-2-carboxylic Acid], the values for the GI50 with NCI-H929 cell line (setting [3]) and in the data set on K562 cell line were 22 ± 10 nM and greater than 12000 nM, respectively. The CL was 51 mL/min/kg in the data set “Mouse IV PK” (mouse IV, dosed at 25 mg/kg) and 16 mL/min/kg in the data set “Dog IV PK”. Further, the AUC/Dose in “Mouse IV PK” (mouse IV, dosed at 25 mg/kg, dose normalized) is 334^c nM*h/mpk; in the data set “Dog IV PK” it was 1324 nM*h/mpk. In addition, the clearance – broadly, the rate of elimination divided by the concentration – in “Mouse IV PK” (mouse, plasma, iv, 25 mg/kg) stood at 51 mL/min/kg. Also, the “CL (% hep blood flow)” value in “Dog IV PK” was determined as 50 % hep blood flow.

Values taken from PMC11345828 (Journal of Medicinal Chemistry, 2024).
